target: Nonstructural protein 3 (Zika virus, UniProt A0A024AXB9); experiment: Functional biochemical assay to identify treatments for viral infectious disease that targets Zika NS2B-NS3 protease. Utilizing a direct enzyme activity measurement method, reading the fluorescence intensity is used to characterize the relative potency of inhibitors as IC50.; design: species or system PRVABC59
Sequence (A0A024AXB9 whole entry): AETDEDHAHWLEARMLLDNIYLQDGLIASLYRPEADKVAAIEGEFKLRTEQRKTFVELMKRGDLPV

SMILES	IC50 [µM]
Clc1ccc2[nH]cc(Cc3ccc(-c4nn[nH]n4)cc3)c2c1	> 99.5
NCc1cc(C(=O)N[C@H]2CCCOC2)cc([C@@H]2C[C@H]2c2cc(Cl)cc(NC(=O)OCc3ccccc3)c2)c1	11.4
O=C(Nc1cc(Cl)cc(C(=O)N2CCC[C@H]2c2nnn[nH]2)c1)OCc1ccccc1	> 99.5
NCc1cc(C(=O)N2CCNC(=O)C2)cc([C@@H]2C[C@H]2c2cc(Cl)cc(NC(=O)OCc3ccccc3)c2)c1	14.6
O=C(O)c1cccc(NC(=O)c2cc(Cl)cc3[nH]ncc23)c1	> 99.5
CN(C)C(=O)c1cc(CN)cc([C@@H]2C[C@H]2c2cc(Cl)cc(NC(=O)OCc3ccccc3)c2)c1	11.9
CNC(=O)[C@H](Nc1ccc(-c2nnn[nH]2)cc1)c1cc(Cl)cc(C2CC2)c1	> 99.5
NCc1cc(C(=O)N2CCOCC2)cc([C@@H]2C[C@H]2c2cc(Cl)cc(NC(=O)OCc3ccccc3)c2)c1	13.8
NCc1cc(/C=C/C(=O)O)cc(NC(=O)c2cc(Cl)cc(NC(=O)OCc3ccccc3)c2)c1	3.17
CCOC(=O)[C@H]1[C@H](c2cccc(CN)c2)[C@H]1c1cc(Cl)cc(NC(=O)OCc2ccccc2)c1	17.2
C=CC[C@H](Nc1cncc(Cl)c1)c1cccc(-c2nn[nH]n2)c1	> 99.5
C=CC[C@H](Nc1cccc(Cl)c1)c1cccc(-c2nn[nH]n2)c1	> 99.5
NCCCOc1cc(-c2ccc(N)nc2)cc2c1COB2O	> 99.5
CCCn1cc(-c2cc(Cl)cc(NC(=O)OCc3ccccc3)c2)c(C(=O)O)n1	> 99.5
N#C[C@H](c1cc(Cl)cc(C2CC2)c1)N1c2cnccc2C[C@H]1C(=O)O	> 99.5
NCc1cc(CCc2cc(Cl)cc(NC(=O)OCc3ccccc3)c2)cc(C(=O)O)c1	> 99.5
N#C[C@H](Nc1cccc(-c2nn[nH]n2)c1)c1cc(Cl)cc2[nH]ncc12	> 99.5
Clc1cc([C@@H]2C[C@H]2c2cccc(-c3nn[nH]n3)c2)c2cn[nH]c2c1	> 99.5
O=C(Nc1cccc(-n2nn[nH]c2=O)c1)c1cc(Cl)cc(C2CC2)c1	> 99.5
N#C[C@H](Nc1ccc2c(c1)CNC2)c1cc(Cl)cc2[nH]ncc12	0.116
NCc1cc(Cl)cc(-c2ccc3[nH]c(C(=O)O)cc3c2)c1	> 99.5
NC[C@@H]1CN(c2cc(-c3ccc(N)nc3)cc3c2COB3O)C(=O)O1	> 99.5

SMILES	IC50 [µM]
N#C[C@H](Nc1ccc(CCC(=O)O)cn1)c1cc(Cl)cc(C2CC2)c1	> 99.5
N#C[C@H](Nc1cccn(CC(=O)O)c1=O)c1cc(Cl)cc(C2CC2)c1	> 99.5
NCc1cc(CO)cc([C@H]2C[C@@H]2c2cc(Cl)cc(NC(=O)OCc3ccccc3)c2)c1	10.4
O=C(Nc1cc(Cl)cc(C(=O)N2CCC(C(=O)O)CC2)c1)OCc1ccccc1	> 99.5
O=C(Nc1cc(Cl)cc(-c2ccn3c(C(=O)O)cnc3c2)c1)OCc1ccccc1	> 99.5
O=C(O)c1cccc(CCc2cc(Cl)cc3[nH]ncc23)c1	> 99.5
OCC#C[C@H](Nc1ccc(-c2nnn[nH]2)cc1)c1cc(Cl)cc(C2CC2)c1	> 99.5
O=C(Nc1cc(Cl)cc(-c2cn(C3CCCC3)nc2C(=O)O)c1)OCc1ccccc1	95.2
NCc1cc(NC(=O)c2cc(Cl)cc(NC(=O)OCc3ccccc3)c2)cc([C@@H]2C[C@H]2C(=O)O)c1	5.66
NCc1ccc(C(=O)O)c(NC(=O)c2cc(Cl)cc(NC(=O)OCc3ccccc3)c2)c1	> 99.5
CC(C)CNC(=O)[C@H](Nc1cccc(-c2nnn[nH]2)c1)c1cc(Cl)cc(C2CC2)c1	> 99.5
CNC(=O)[C@H](Nc1cc(CN)cc(C(=O)O)c1)c1cc(Cl)cc(C2CC2)c1	0.795
N#Cc1cc(CN)cc([C@H]2C[C@@H]2c2cc(Cl)cc(NC(=O)OCc3ccccc3)c2)c1	> 99.5
NCc1cc(CC(=O)O)cc(NC(=O)c2cc(Cl)cc(NC(=O)OCc3ccccc3)c2)c1	7.96
O=C(Nc1cc(Cl)cc(C(=O)N2CCC[C@H]2C(=O)O)c1)OCc1ccccc1	> 99.5
NCCCOc1cc2c(c(-c3ccc(N)nc3)c1)CCB(O)O2	> 99.5
CC(C)[C@H](N)P(=O)(Oc1ccc(F)cc1)Oc1ccc(F)cc1	> 99.5
O=C(Nc1cc(Cl)cc(C(=O)NC2(c3nnn[nH]3)CC2)c1)OCc1ccccc1	> 99.5
C[C@@]1(c2cccc(CN)c2)C[C@H]1c1cc(Cl)cc(NC(=O)OCc2ccccc2)c1	5.57
O=C(Nc1cc(Cl)cc(-c2cc3cc(C(=O)O)ncn3c2)c1)OCc1ccccc1	> 99.5
Cc1c(C(=O)Nc2cccc(-c3nnn[nH]3)c2)cnn1-c1ccc(Cl)cc1	> 99.5
CNC(=O)[C@H](Nc1cc(Cl)cc(C2CC2)c1)c1ccc(-c2nn[nH]n2)cc1	> 99.5

SMILES	IC50 [µM]
CNC(=O)[C@H](Nc1cccc(C2(C(=O)O)CCC2)c1)c1cc(Cl)cc(C2CC2)c1	> 99.5
CNC(=O)c1cc(CN)cc([C@@H]2C[C@H]2c2cc(Cl)cc(NC(=O)OCc3ccccc3)c2)c1	8.64
O=C(Nc1cc(Cl)cc(C(=O)Nc2cc(C(=O)O)ccn2)c1)OCc1ccccc1	> 99.5
N#Cc1cc(Cl)cc(-c2ccc3[nH]c(C(=O)O)cc3c2)c1	> 99.5
O=C(O)C[C@H]1CCCN1C(=O)c1cc(Cl)cc(NC(=O)OCc2ccccc2)c1	> 99.5
C[C@@]1(c2cc(Cl)cc(NC(=O)OCc3ccccc3)c2)C[C@H]1c1cccc(CN)c1	19.5
O=C(O)c1cc2cc(-c3cc(Cl)cc(C4CC4)c3)ccc2[nH]1	32.9
CNC(=O)[C@H](Nc1cncc(C(=O)O)c1)c1cc(Cl)cc(C2CC2)c1	> 99.5
NCc1cc(Br)cc([C@H]2C[C@@H]2c2cc(Cl)cc(NC(=O)OCc3ccccc3)c2)c1	11.6
C[C@H](C(=O)O)N(C)C(=O)c1cc(Cl)cc(NC(=O)OCc2ccccc2)c1	> 99.5
C[C@](O)(Cc1cc(Cl)cc(NC(=O)OCc2ccccc2)c1)c1cccc(CN)c1	> 99.5
CNC(=O)[C@H](Nc1cccc(-c2nnn[nH]2)c1)c1cc(Cl)cc(C2CC2)c1	> 99.5
CCc1cc(Br)cc2c(Cc3ccc(-c4nnn[nH]4)cc3)c[nH]c12	26.4
CN(C)C(=O)Nc1cccc([C@@H]2C[C@H]2c2cc(Cl)cc(NC(=O)OCc3ccccc3)c2)c1	> 99.5
CC(C)[C@H](NC(=O)[C@@H]1CCCN1C(=O)OCc1ccccc1)P(=O)(Oc1ccc(F)cc1)Oc1ccc(F)cc1	> 99.5
CC(C)[C@H](CC(=O)O)NC(=O)c1cc(Cl)cc(NC(=O)OCc2ccccc2)c1	> 99.5
N#C[C@H](Nc1ccc(CC(=O)O)cn1)c1cc(Cl)cc(C2CC2)c1	> 99.5
CNC(=O)[C@H](Nc1cc(CN)cc(-c2nn[nH]n2)c1)c1cc(Cl)cc(C2CC2)c1	0.589
O=C(Nc1cc(Cl)cc(C(=O)Nc2ccnc(C(=O)O)c2)c1)OCc1ccccc1	> 99.5
O=C(Nc1cc(Cl)cc(C(=O)N2CC[C@H](C(=O)O)C2)c1)OCc1ccccc1	> 99.5

The remaining lines, values ahead:

IC50 [µM]	SMILES
27.8	CC(C)(C)NC(=O)[C@H](Nc1cccc(-c2nn[nH]n2)c1)c1cc(Cl)cc(NC(=O)OCc2ccccc2)c1
60.9	CC(C)NC(=O)[C@H](Nc1cccc(-c2nn[nH]n2)c1)c1cc(Cl)cc(NC(=O)OCc2ccccc2)c1
12.8	O=C(Nc1cc(Cl)cc([C@H](Nc2cccc(-c3nn[nH]n3)c2)C(=O)NCc2ccccc2)c1)OCc1ccccc1
26.9	CCOC(=O)[C@H]1[C@H](c2cc(Cl)cc(NC(=O)OCc3ccccc3)c2)[C@H]1c1cccc(-c2nnn[nH]2)c1
31.1	CC(C)CNC(=O)[C@H](Nc1cccc(-c2nn[nH]n2)c1)c1cc(Cl)cc(NC(=O)OCc2ccccc2)c1
> 99.5	O=C(Nc1cc(Cl)cc([C@H](Nc2cccc(-c3nn[nH]n3)c2)C(=O)N[C@H]2CCOC2)c1)OCc1ccccc1
51.9	N#C[C@H](Nc1cncc(-c2nn[nH]n2)c1)c1cc(Cl)cc(NC(=O)OCc2ccccc2)c1
84.1	O=C(Nc1cc(Cl)cc([C@H]2[C@H](CO)[C@@H]2c2cccc(-c3nn[nH]n3)c2)c1)OCc1ccccc1
> 99.5	O=C(Nc1cc(Cl)cc([C@H](Nc2cccc(-c3nn[nH]n3)c2)C(=O)NC[C@H]2CCCO2)c1)OCc1ccccc1
27.6	O=C(Nc1cc(Cl)cc([C@H]2C[C@@H]2c2cccc(-c3nnn[nH]3)c2)c1)OCc1ccccc1
> 99.5	O=C(Nc1cc(Cl)cc([C@H](Nc2cccc(-c3nn[nH]n3)c2)C(=O)NC2CCOCC2)c1)OCc1ccccc1
17.8	O=C(Nc1cc(Cl)cc(-c2ccc3[nH]nc(C(=O)O)c3c2)c1)OCc1ccccc1
27.3	O=C(Nc1cc(Cl)cc(CNc2cccc(-c3nn[nH]n3)c2)c1)OCc1ccccc1
11.8	O=C(Nc1cc(Cl)cc(-c2ccc3cc(C(=O)O)[nH]c3c2)c1)OCc1ccccc1
24.7	O=C(Nc1cc(Cl)cc(-c2ccc3nc(C(=O)O)ncc3c2)c1)OCc1ccccc1
8.13	CC(=Cc1cccc(CN)c1)c1cc(Cl)cc(NC(=O)OCc2ccccc2)c1
> 99.5	O=C(Nc1cc(Cl)cc([C@H]2Nc3ccc(-c4nn[nH]n4)cc3[C@H]3OCCC[C@@H]23)c1)OCc1ccccc1
15.6	NCc1cccc([C@H](C#CCO)Nc2cc(Cl)cc(NC(=O)OCc3ccccc3)c2)c1
> 99.5	O=C(Nc1cc(Cl)cc(-c2cnn3ccc(C(=O)O)cc23)c1)OCc1ccccc1
16.8	Clc1cccc([C@H](C#Cc2ccccc2)Nc2cccc(-c3nn[nH]n3)c2)c1
> 99.5	CNC(=O)[C@H](Nc1cc(Cl)cc(NC(=O)OCc2ccccc2)c1)c1ccc(-c2nn[nH]n2)cc1
> 99.5	COCCNC(=O)[C@H](Nc1cccc(-c2nn[nH]n2)c1)c1cc(Cl)cc(NC(=O)OCc2ccccc2)c1
12.1	CC(=Cc1cccc(-c2nnn[nH]2)c1)c1cc(Cl)cc(NC(=O)OCc2ccccc2)c1
23.1	O=C(Nc1cc(Cl)cc(-c2cccc3c(C(=O)O)cccc23)c1)OCc1ccccc1
> 99.5	CN(C)CCNC(=O)[C@H](Nc1cccc(-c2nn[nH]n2)c1)c1cc(Cl)cc(NC(=O)OCc2ccccc2)c1
52.4	O=C(Nc1cc(Cl)cc(N[C@H](C#CCO)c2ccc(-c3nn[nH]n3)cc2)c1)OCc1ccccc1
1.16	CNC(=O)[C@H](Nc1cc(CN)cc(C(=O)O)c1)c1cc(Cl)cc(NC(=O)OCc2ccccc2)c1
> 99.5	CNC(=O)[C@H](Nc1ccc(-c2nn[nH]n2)cc1)c1cc(Cl)cc(NC(=O)OCc2ccccc2)c1
